Experimental findings from patent publication US20250382588A1, “CHIMERIC AAV AND USES THEREOF” (priority 2023, published 2025) are described below.

The target in assay [1] is T1, rM3Ds (Rattus norvegicus, UniProt P08483, A177S/A238G/A489L/DEL261-437/DEL441-478/E258S/I253V/I483M/INS256[…]/K178L/K182A/K255R/K484R/K486H/L173F/L482A/M480V/R171S/R176Q/R179M/S481M/T174R/T181R/T257A/Y148C).
T1 sequence (P08483 with tags, fused parts or gaps Y148C/R171S/L173F/T174R/R176Q/A177S/K178L/R179M/T181R/K182A/A238G/I253V/K255R/INS256[…]/T257A/E258S/DEL261-437/DEL441-478/M480V/S481M/L482A/I483M/K484R/K486H/A489L): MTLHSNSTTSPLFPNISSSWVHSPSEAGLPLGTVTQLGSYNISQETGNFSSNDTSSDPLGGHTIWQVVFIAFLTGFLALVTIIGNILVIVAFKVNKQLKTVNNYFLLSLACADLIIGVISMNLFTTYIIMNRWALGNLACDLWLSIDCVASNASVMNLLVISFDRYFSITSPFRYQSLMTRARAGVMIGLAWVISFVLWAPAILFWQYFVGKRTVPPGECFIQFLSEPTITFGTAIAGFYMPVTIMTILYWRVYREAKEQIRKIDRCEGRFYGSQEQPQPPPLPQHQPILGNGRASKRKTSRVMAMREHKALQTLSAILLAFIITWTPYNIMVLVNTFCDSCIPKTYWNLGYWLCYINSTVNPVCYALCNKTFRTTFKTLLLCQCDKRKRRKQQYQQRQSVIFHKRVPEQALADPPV
Kind of assay: Electrophysiological recording in caudate/putamen of MPP+ lesioned macaques after CNO or DCZ. Format: in vivo. The procedure: Intriguingly, many of the symptoms were greatly reversed after systemic deschloroclozapine (DCZ) administration. DCZ is a potent brain-penetrable agonist for rM3Ds with reduced off-targeting binding compared to CNO, and was administered to activate the DREADD system in the macaque brain.
(§1) Electrophysiological recording was performed through a recording chamber while the monkey was anesthetized. Neural responses were recorded by a 16-channel linear probe (Plexon Inc, Uprobe) driven by a mechanical microdrive (Alpha Omega, FlexMT). Signals were passed through a head stage (Plexon Inc, HST/16V-G20 LN) and then split and filtered between 300 Hz and 5 kHz to identify spiking activity with an amplifier system (Plexon Inc, OmniPlex). Detected spikes were then sorted by commercially available software (Plexon Inc, Offline Sorter) for further analysis. To quantify the effect of CNO/DCZ injection, neural activity was recorded for 60 minutes following CNO/DCZ injection. The response time-course for each channel was obtained by counting the spikes within every 10-minute window and then normalizing to the maximal.
To determine the effect of CNO/DCZ injection on the direction of signal change, we performed Pearson correlation between neural responses and time using the ‘corr’ function in Matlab, which generates the correlation coefficient ‘r’ and significant level ‘p’. A neuron was considered to have “Increased” activity when r>0 and p<[…]; and considered to have “Decreased” activity when r<0 and p<0.05. Otherwise, neurons were considered to be “Unchanged” in their neural activities. The responses of all increased neurons were then averaged after being normalized by the maximal response (Crowe et al., 2014; Dai and Wang, 2018; Hirokawa et al., 2019) following CNO/DCZ injection, and then plotted as a function of time to generate the normalized population response.

Assay [2] concerns the target T1, rM3Ds. Kind of assay: Electrophysiological recording in caudate/putamen after intramuscular CNO, rM3Ds macaques. Format: in vivo. The procedure: as §1
To determine the effect of CNO/DCZ injection on the direction of signal change, we performed Pearson correlation between neural responses and time using the ‘corr’ function in Matlab, which generates the correlation coefficient ‘r’ and significant level ‘p’. A neuron was considered to have “Increased” activity when r>0 and p<[…]; and considered to have “Decreased” activity when r<0 and p<0.05. Otherwise, neurons were considered to be “Unchanged” in their neural activities. The responses of all increased neurons were then averaged after being normalized by the maximal response (Crowe et al., 2014; Dai and Wang, 2018; Hirokawa et al., 2019) following CNO/DCZ injection, and then plotted as a function of time to generate the normalized population response. […]

In a further assay the test system is c-Fos+ cells in the SNr. Kind of assay: c-Fos staining in the SNr after CNO. Format: in vivo, mice. The following applies: AAV8R12-G88P3-HA-hM3Dq.
Assay [3] is described as follows: Rotation behavior after nigral EYFP control AAV and CNO. Format: in vivo, mice. The following applies: for rotation behavior (FIG. 6C): AAV8R12-G88P3-EYFP; for rotation behavior (FIG. 6C) / rotation behavior (FIG. 7C): n=5; for rotation behavior (FIG. 7C): AAV8R12-G88P7-EYFP. The procedure:
Mice were anesthetized with sodium pentobarbital (Nembutal; 80 mg/kg, i.p.), and then placed into a stereotaxic device (KOPF). Eye cream was applied on both corneas to avoid dehydration. The skull above the targeted areas was thinned with a dental drill and carefully removed. Injections were conducted with a 10 μL syringe connected to a 33-Gauge needle (Neuros; Hamilton), using a microsyringe pump (Legato 130, KD Scientific). A total volume of 200 nL virus was injected into the SNr at a speed of 20 nL/min. The coordinates for the SNr were 3.4 mm posterior, 1.3 mm lateral, 4.8 mm ventral to the bregma.
Mice that were used in the behavioral experiments were then implanted with guide cannulas (KOPF) unilaterally aiming at the dorsomedial striatum (0.5 mm anterior, 1.5 mm lateral, 3.5 mm ventral to the bregma). The cannulas were fixed to the skull with dental cement. Stainless steel obturators were inserted into the guide cannulas and were replaced every other day to maintain the patency until infusions were made. Mice were allowed to recover from the surgery for at least 3 weeks before further studies.
Mice were individually handled for 10-20 seconds per day for at least 5 days to habituate them to the experimenter. The open field test was conducted in a test apparatus (50 cm×50 cm×50 cm) with an HD digital camera (Sony) positioned above the arena. On day one, mice were habituated to the apparatus for 10 minutes. On day 2, mice were administrated saline (0.1 mL i.p. or 200 nL intracranially [i.c.] through the guide cannulas). On day 3, mice were administrated with Clozapine-N-oxide (CNO, Hello Bio, HB1807; 0.3 mg/kg i.p. or 200 nL at 100 μM i.e.). All behavioral tests were conducted 30 minutes after injection. During the test, mice were allowed to freely explore the apparatus for 10 minutes. The behavioral data were analyzed with ANY-maze software (Stoelting Co.).

Setting [4] is: caudate/putamen, CNO 36 cells, DCZ 31 cells.
The mark [5] stands for this setting: 38 total cells in the caudate/putamen.
Setting [6] is: monkey CM048, 38 cells in caudate.

For `C[N+]1([O-])CCN(C2=Nc3cc(Cl)ccc3Nc3ccccc32)CC1` [CNO, clozapine N-oxide], on rM3Ds [1] (anesthetized animals), the “neuronal activity in MPP+ lesioned macaques, in words” value is reported as “induced an increase in neuronal activity”. Further, on rM3Ds [1] (setting [4]), the “cells activated (FIG. 15G)” value is 52.8%, the “cells inactivated (FIG. 15G)” value came to 13.9% and the “cells unchanged (FIG. 15G)” value came to 33.3%. For the same molecule, at rM3Ds [2] (setting [5]), the “cells activated (FIG. 12N)” value worked out at 50%, the “cells inactivated (FIG. 12N)” value was 13.2% and the “cells unchanged (FIG. 12N)” value turned out to be 36.8%. Also, the “neuronal activity in retrogradely labeled D1-MSNs (opto-tagging)” value on rM3Ds [2] (anesthetized macaques, AAV8R12-G88P7-HA-rM3Ds-2A-Cre) was “effectively induced an increase of neuronal activity”. On rM3Ds [2] (setting [6]), the “cells activated (FIG. 12F)” value came to 65.8%, the “cells inactivated (FIG. 12F)” value came out at 7.9% and the “cells unchanged (FIG. 12F)” value is on record as 26.3%. The “c-Fos+ cells in the right SNr” value with c-Fos+ cells in the SNr (CNO intraperitoneal) is given as “significant increase”. Also, the “number of nigral c-Fos+ cells” value in the assay on c-Fos+ cells in the SNr (intracranial CNO infusions) was “No significant changes”. In assay [3] (CNO i.p.), the “rotation behavior (FIG. 6C)” value came to 44.72±10.89 and the “rotation behavior (FIG. 7C)” value was determined as 46.88±7.497. Moreover, in assay [3] (CNO intracranial), the “rotation behavior (FIG. 6C)” value was found to be 61.39±5.774 and the “rotation behavior (FIG. 7C)” value was determined as 34.55±7.536. Moreover, the “rotational behaviors, in words” value in assay [3] (animals that received the EYFP control vector named at the place) is “didn't induce rotational behaviors”.
